Measurements as given in PubChem BioAssay AID330 (DTP/NCI, 2004).
Where “and” joins values, the source holds several entries; their conditions need not be identical. Equal values may be shown once. Inconclusive results and toxic doses are left out. Rule for the calls: active = survival T/C of 150% or more; inactive = T/C below 125% in these data.

System: P388 leukemia ip, CD2F1 mice, survival T/C
Test: NCI In Vivo Anticancer Drug Screen. Data for tumor model P388 Leukemia (intraperitoneal) in CD2F1 (CDF1) mice
Details: endpoint: median survival time, higher = longer survival
Procedure, shortened: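 Mice carrying the transplanted tumor received test compound or vehicle. Survival was recorded in each group, and the value is the treated-group measurement divided by that of the vehicle-treated control group.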

[1] = dose: 50.0 mg/kg/injection, schedule: Q01DX005 (ip), vehicle: Klucel (hydroxypropylcellulose) (HPC)
[2] = dose: 100.0 mg/kg/injection, schedule: Q01DX005 (ip), vehicle: Klucel (hydroxypropylcellulose) (HPC)
[3] = dose: 12.5 mg/kg/injection, schedule: Q04DX002 (ip), vehicle: saline with Tween-80
[4] = dose: 25.0 mg/kg/injection, schedule: Q04DX002 (ip), vehicle: saline with Tween-80
[5] = dose: 60.0 mg/kg/injection, schedule: Q01DX005 (ip), vehicle: saline with Tween-80
[6] = dose: 120.0 mg/kg/injection, schedule: Q01DX005 (ip), vehicle: saline with Tween-80
[7] = dose: 240.0 mg/kg/injection, schedule: Q01DX005 (ip), vehicle: saline with Tween-80
[8] = dose: 50.0 mg/kg/injection, schedule: Q01DX009 (ip), vehicle: saline with Tween-80
[9] = dose: 100.0 mg/kg/injection, schedule: Q01DX009 (ip), vehicle: saline with Tween-80
[10] = dose: 50.0 mg/kg/injection, schedule: Q01DX005 (ip), vehicle: saline with Tween-80
[11] = dose: 100.0 mg/kg/injection, schedule: Q01DX005 (ip), vehicle: saline with Tween-80
[12] = dose: 200.0 mg/kg/injection, schedule: Q01DX005 (ip), vehicle: saline with Tween-80
[13] = dose: 12.5 mg/kg/injection, schedule: Q01DX009 (ip), vehicle: water
[14] = dose: 25.0 mg/kg/injection, schedule: Q01DX009 (ip), vehicle: water
[15] = dose: 50.0 mg/kg/injection, schedule: Q01DX009 (ip), vehicle: water
[16] = dose: 100.0 mg/kg/injection, schedule: Q01DX009 (ip), vehicle: water
[17] = dose: 200.0 mg/kg/injection, schedule: Q01DX009 (ip), vehicle: water
[18] = dose: 50.0 mg/kg/injection, schedule: Q01DX005 (ip), vehicle: saline
[19] = dose: 50.0 mg/kg/injection, schedule: Q01DX009 (ip), vehicle: Klucel (hydroxypropylcellulose) (HPC)
[20] = dose: 100.0 mg/kg/injection, schedule: Q01DX009 (ip), vehicle: Klucel (hydroxypropylcellulose) (HPC)
[21] = dose: 100.0 mg/kg/injection, schedule: Q04DX003 (ip), vehicle: Klucel (hydroxypropylcellulose) (HPC)
[22] = dose: 200.0 mg/kg/injection, schedule: Q01DX005 (ip), vehicle: Klucel (hydroxypropylcellulose) (HPC)

Measured: T/C

O=[N+]([O-])c1ccccc1N/N=C\c1c(Cl)[nH]c2ccccc12
inactive: [1] 90 % of control | [2] 95 % of control | dose: 100.0 mg/kg/injection, schedule: Q04DX002 (ip), vehicle: Klucel (hydroxypropylcellulose) (HPC) 90 % of control | dose: 200.0 mg/kg/injection, schedule: Q04DX002 (ip), vehicle: Klucel (hydroxypropylcellulose) (HPC) 91 % of control | dose: 400.0 mg/kg/injection, schedule: Q04DX002 (ip), vehicle: Klucel (hydroxypropylcellulose) (HPC) 95 % of control

CC1OC(C)(C)OC1C(=O)OCc1ccccc1 (stereo unspecified)
inactive: dose: 25.0 mg/kg/injection, schedule: Q01DX005 (ip), vehicle: water 96 % of control | dose: 50.0 mg/kg/injection, schedule: Q01DX005 (ip), vehicle: water 105 % of control | dose: 100.0 mg/kg/injection, schedule: Q01DX005 (ip), vehicle: water 100 % of control | dose: 200.0 mg/kg/injection, schedule: Q01DX005 (ip), vehicle: water 100 % of control | dose: 400.0 mg/kg/injection, schedule: Q01DX005 (ip), vehicle: water 100 % of control

c1csc(-c2n[se]c(-c3cccs3)n2)c1
inactive: [3] 99 % of control | [4] 100 % of control

O=C1OCC/C1=C/OC(=O)c1ccccc1
inactive: [5] 93 % of control | [6] 99 % of control | [7] 106 % of control

CCOC(=O)C(C)(C)CN(CCCN(C)C)CC(C)(C)C(=O)OCC
inactive: [8] 105 % of control | [9] 115 % of control

CC1N=C(SCc2c(F)cccc2Cl)N2C(C)N=C(SCc3c(F)cccc3Cl)N12 (stereo unspecified)
inactive: [10] 96 % of control | [11] 96 % of control | [12] 93 % of control

COC1=CC(=O)C2=C(OCO2)C1=O
inactive: dose: 6.25 mg/kg/injection, schedule: Q04DX002 (ip), vehicle: saline with Tween-80 104 % of control | [3] 109 % of control | [4] 103 % of control

O=C(O)c1cn2c3c(cc(N4CCN(CCO)CC4)cc3c1=O)SCC2
inactive: [5] 104 % of control | [6] 113 % of control | [7] 105 % of control

CCOC(=O)Nc1cc2c(c(N)n1)N=C(c1ccccc1)CS2
inactive: dose: 75.0 mg/kg/injection, schedule: Q01DX005 (ip), vehicle: Klucel (hydroxypropylcellulose) (HPC) 100 % of control | dose: 150.0 mg/kg/injection, schedule: Q01DX005 (ip), vehicle: Klucel (hydroxypropylcellulose) (HPC) 95 % of control | dose: 300.0 mg/kg/injection, schedule: Q01DX005 (ip), vehicle: Klucel (hydroxypropylcellulose) (HPC) 97 % of control

c1cc(C2CCOCC2)ccn1
inactive: dose: 12.5 mg/kg/injection, schedule: Q01DX009 (ip), vehicle: saline with Tween-80 100 % of control | dose: 12.5 mg/kg/injection, schedule: Q04DX003 (ip), vehicle: saline with Tween-80 100 % of control | dose: 25.0 mg/kg/injection, schedule: Q01DX009 (ip), vehicle: saline with Tween-80 90 % of control | dose: 25.0 mg/kg/injection, schedule: Q04DX003 (ip), vehicle: saline with Tween-80 100 % of control | [8] 100 % of control | dose: 50.0 mg/kg/injection, schedule: Q04DX003 (ip), vehicle: saline with Tween-80 95 % of control

N#CC(C(=O)C(=O)Nc1cccc(Cl)c1)c1ccccc1 (stereo unspecified)
inactive: [10] 109 % of control | [11] 104 % of control | [12] 99 % of control

O=C(N/N=C/c1cccc(C(F)(F)F)c1)c1ccncc1
inactive: [5] 103 % of control | [6] 97 % of control | [7] 90 % of control

CCOC(=O)NNS(=O)(=O)CCC(N)C(=O)O (stereo unspecified)
inactive: [13] 98 % of control | [14] 88 % of control and 95 % of control | [15] 87 % of control and 90 % of control | [16] 93 % of control | [17] 109 % of control and 86 % of control | dose: 400.0 mg/kg/injection, schedule: Q01DX009 (ip), vehicle: water 111 % of control

CCCN(CCNc1cc(OC)cc2cccnc12)C(C)C
inactive: dose: 12.5 mg/kg/injection, schedule: Q01DX005 (ip), vehicle: saline 107 % of control | dose: 25.0 mg/kg/injection, schedule: Q01DX005 (ip), vehicle: saline 107 % of control | [18] 106 % of control and 88 % of control

C/C(=N\N=c1/cc(Cl)n(C)c(=O)n1C)c1ccc(Cl)cc1
inactive: [19] 102 % of control | [20] 99 % of control

COc1cc2cc3c4cc(OC)c(OC)cc4cc[n+]3c(CCC(=O)O)c2cc1OC
inactive: [9] 96 % of control | dose: 200.0 mg/kg/injection, schedule: Q01DX009 (ip), vehicle: saline with Tween-80 96 % of control | dose: 400.0 mg/kg/injection, schedule: Q01DX009 (ip), vehicle: saline with Tween-80 94 % of control

CC(O)c1cccc(C(C)(C)O)c1Sc1c(C(C)(C)O)cccc1C(C)(C)O (stereo unspecified)
inactive: [21] 99 % of control | dose: 200.0 mg/kg/injection, schedule: Q04DX003 (ip), vehicle: Klucel (hydroxypropylcellulose) (HPC) 98 % of control | dose: 400.0 mg/kg/injection, schedule: Q04DX003 (ip), vehicle: Klucel (hydroxypropylcellulose) (HPC) 97 % of control

O=C1C=C2CCCCCCCCC(C1)C2 (stereo unspecified)
inactive: [1] 99 % of control | [2] 96 % of control | [22] 89 % of control

O=C1NC(CN2CCCC(O)C2)C(=O)NC1CN1CCCC(O)C1 (stereo unspecified)
inactive: [13] 110 % of control and 95 % of control | [14] 96 % of control and 90 % of control | [15] 96 % of control and 110 % of control | [16] 122 % of control and 114 % of control | [17] 116 % of control

C#CCNCCCn1c(=O)nc2n(-c3ccccc3)c3ccccc3nc-2c1=O
inactive: dose: 25.0 mg/kg/injection, schedule: Q04DX003 (ip), vehicle: Klucel (hydroxypropylcellulose) (HPC) 110 % of control | dose: 50.0 mg/kg/injection, schedule: Q04DX003 (ip), vehicle: Klucel (hydroxypropylcellulose) (HPC) 106 % of control | [21] 100 % of control and 107 % of control

O=C(O)C[n+]1cccc2ccccc21
inactive: [18] 103 % of control | dose: 100.0 mg/kg/injection, schedule: Q01DX005 (ip), vehicle: saline 93 % of control | dose: 200.0 mg/kg/injection, schedule: Q01DX005 (ip), vehicle: saline 87 % of control

COc1ccc(C2CCCCCC2)c(OC)c1OC
inactive: [19] 98 % of control and 108 % of control | [20] 113 % of control | dose: 200.0 mg/kg/injection, schedule: Q01DX009 (ip), vehicle: Klucel (hydroxypropylcellulose) (HPC) 103 % of control and 105 % of control

COCCCOC(=O)Oc1ccc(CC(N)C(=O)O)cc1 (stereo unspecified)
inactive: [1] 99 % of control | [2] 99 % of control | [22] 96 % of control

COC1C=CC23c4cc5c(cc4C(O)OC2CN(C)C3C1)OCO5 (stereo unspecified)
inactive: dose: 12.5 mg/kg/injection, schedule: Q01DX009 (ip), vehicle: saline 106 % of control | dose: 25.0 mg/kg/injection, schedule: Q01DX009 (ip), vehicle: saline 107 % of control | dose: 50.0 mg/kg/injection, schedule: Q01DX009 (ip), vehicle: saline 115 % of control | dose: 100.0 mg/kg/injection, schedule: Q01DX009 (ip), vehicle: saline 94 % of control

NC(=O)c1ccc(NC(=O)/C=C/C(=O)Nc2ccc(C(N)=O)cn2)nc1
inactive: dose: 1.65 mg/kg/injection, schedule: Q01DX009 (ip), vehicle: saline with Tween-80 109 % of control | dose: 2.5 mg/kg/injection, schedule: Q01DX009 (ip), vehicle: saline with Tween-80 118 % of control | dose: 2.5 mg/kg/injection, schedule: Q04DX003 (ip), vehicle: saline with Tween-80 100 % of control | dose: 3.75 mg/kg/injection, schedule: Q01DX009 (ip), vehicle: saline with Tween-80 104 % of control | dose: 5.0 mg/kg/injection, schedule: Q04DX003 (ip), vehicle: saline with Tween-80 100 % of control | dose: 10.0 mg/kg/injection, schedule: Q04DX003 (ip), vehicle: saline with Tween-80 100 % of control and 118 % of control | dose: 20.0 mg/kg/injection, schedule: Q04DX003 (ip), vehicle: saline with Tween-80 100 % of control | dose: 625.0 micrograms/kg/injection, schedule: Q01DX009 (ip), vehicle: saline with Tween-80 104 % of control | dose: 1250.0 micrograms/kg/injection, schedule: Q01DX009 (ip), vehicle: saline with Tween-80 122 % of control
